Measurements published in patent US20130281449A1, “Oxazine Derivatives and their Use in the Treatment of Neurological Disorders” (NOVARTIS AG, priority 2011, published 2013).
Structures can show the parent of a compound that is named as a salt.

Columns and labels:
[1] = test system: Cellular Release of Amyloid Peptide 1-40; experiment: Test 4: Inhibition of Cellular Release of Amyloid Peptide 1-40; type: cell-based, Chinese hamster; conditions: Cricetulus griseus, 24 h; read-out: Amyloid-β1-40 release IC50
Protocol: Chinese hamster ovary cells are transfected with the human gene for amyloid precursor protein. The cells are plated at a density of 8000 cells/well into 96-well microtiter plates and cultivated for 24 hours in DMEM cell culture medium containing 10% FCS. The test compound is added to the cells at various concentrations, and the cells are cultivated for 24 hours in the presence of the test compound. […] The potency of the compound is calculated from the percentage of inhibition of amyloid peptide release as a function of the test compound concentration.

[2] = biological target: Human BACE-1 (Homo sapiens, UniProt P56817); experiment: Test 1: Inhibition of Human BACE-1; type: biochemical; conditions: mean IC50 values in Test 1; recombinant BACE-1, pH 4.5
Protocol: Test 1: Inhibition of Human BACE-1
IC50 values are calculated from percentage of inhibition of BACE-1 activity as a function of the test compound concentration.

Chain of Human BACE-1 (P56817 46-457 limits assumed): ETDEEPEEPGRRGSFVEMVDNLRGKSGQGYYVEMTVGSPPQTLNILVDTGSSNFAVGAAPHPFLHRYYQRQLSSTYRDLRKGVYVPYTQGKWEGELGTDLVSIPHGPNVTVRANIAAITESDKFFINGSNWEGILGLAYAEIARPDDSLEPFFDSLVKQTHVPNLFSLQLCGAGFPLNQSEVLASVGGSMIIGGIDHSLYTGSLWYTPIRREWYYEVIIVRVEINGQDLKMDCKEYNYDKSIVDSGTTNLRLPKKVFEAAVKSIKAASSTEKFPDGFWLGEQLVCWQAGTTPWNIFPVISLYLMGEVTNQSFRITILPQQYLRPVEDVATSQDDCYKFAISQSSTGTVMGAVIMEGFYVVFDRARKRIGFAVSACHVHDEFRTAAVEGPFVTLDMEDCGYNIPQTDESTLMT

Compound | IC50 [1] [nM] | IC50 [2] [nM]
C#CCOc1cnc(C(=O)Nc2ccc(F)c([C@]3(C)CO[C@@](C)(C(F)(F)F)C(N)=N3)c2)c(N)n1 [Example 25, 3-Amino-5-prop-2-ynyloxy-pyrazine-2-carboxylic acid [3-((3R,6R)-5-amino-3,6-dimethyl-6-trifluoromethyl-3,6-dihydro-2H-[1,4]oxazin-3-yl)-4-fluoro-phenyl]-amide] | 1 | 1
[2H]C([2H])([2H])OCc1cc(C#N)cnc1C(=O)Nc1ccc(F)c([C@]2(C)CO[C@@](C)(C(F)(F)F)C(N)=N2)c1 [Example 31, 5-Cyano-3-trideuteromethoxymethyl-pyridine-2-carboxylic acid [3-((3R,6R)-5-amino-3,6-dimethyl-6-trifluoromethyl-3,6-dihydro-2H-[1,4]oxazin-3-yl)-4-fluoro-phenyl]-amide] | 9 | 11
C[C@@]1(c2cc(NC(=O)c3ncc(C(F)F)cc3N)ccc2F)CO[C@@](C)(C(F)(F)F)C(N)=N1 [Example 29, 3-Amino-5-difluoromethyl-pyridine-2-carboxylic acid [3-((3R,6R)-5-amino-3,6-dimethyl-6-trifluoromethyl-3,6-dihydro-2H-[1,4]oxazin-3-yl)-4-fluoro-phenyl]-amide] | 10 | 14
COc1ccc(C(=O)Nc2ccc(F)c([C@]3(C)CO[C@@](C)(C(F)(F)F)C(N)=N3)c2)c(N)n1 [Example 44, 2-Amino-N-[3-((3R,6R)-5-amino-3,6-dimethyl-6-trifluoromethyl-3,6-dihydro-2H-[1,4]oxazin-3-yl)-4-fluoro-phenyl]-6-methoxy-nicotinamide] | 79 | 220
Cc1cc(Cl)cnc1C(=O)Nc1ccc(F)c([C@]2(C)CO[C@@](C)(C(F)(F)F)C(N)=N2)c1 [Example 20, 5-Chloro-3-methyl-pyridine-2-carboxylic acid [3-((3R,6R)-5-amino-3,6-dimethyl-6-trifluoromethyl-3,6-dihydro-2H-[1,4]oxazin-3-yl)-4-fluoro-phenyl]-amide hydrochloride] | 26 | 5
Cc1cc(OC(F)F)cnc1C(=O)Nc1ccc(F)c([C@]2(C)CO[C@@](C)(C(F)(F)F)C(N)=N2)c1 [Example 24, 5-Difluoromethoxy-3-methyl-pyridine-2-carboxylic acid [3-((3R,6R)-5-amino-3(6-dimethyl-6-trifluoromethyl-3,6-dihydro-2H-[1,4]oxazin-3-yl)-4-fluoro-phenyl]-amide hydrochloride] | 6 | 14
[2H]C([2H])([2H])OCc1cc(OC([2H])([2H])[2H])cnc1C(=O)Nc1ccc(F)c([C@]2(C(F)F)COCC(N)=N2)c1 [Example 10, 5-Trideuteromethoxy-3-trideuteromethoxymethyl-pyridine-2-carboxylic acid [3-((R)-5-amino-3-difluoromethyl-3,6-dihydro-2H-[1,4]oxazin-3-yl)-4-fluoro-phenyl]-amide] | 32 | 190
NC1=N[C@@](c2cc(NC(=O)c3ccc4c(Cl)c[nH]c4n3)ccc2F)(C(F)F)COC1 [Example 5, 3-Chloro-1H-pyrrolo[2,3-b]pyridine-6-carboxylic acid [3-((R)-5-amino-3-difIuoromethyl-3,6-dihydro-2H-[1,4]oxazin-3-yl)-4-fluoro-phenyl]-amide] | 14 | 12
Cc1cc(Cl)cnc1C(=O)Nc1ccc(F)c(C2(C)COC(CF)(CF)C(N)=N2)c1 (stereo not shown) [Example 41, 5-Chloro-3-methyl-pyridine-2-carboxylic acid [3-(5-amino-6,6-bis-fluoromethyl-3-methyl-3,6-dihydro-2H-[1,4]oxazin-3-yl)-4-fluoro-phenyl]-amide] | 13 | 48
COc1cnc(C(=O)Nc2ccc(F)c([C@]3(C(F)F)COCC(N)=N3)c2)c(C)c1 [Example 7, 5-Methoxy-3-methyl-pyridine-2-carboxylic acid [3-((R)-5-amino-3-difluoromethyl-3,6-dihydro-2H-[1,4]oxazin-3-yl)-4-fluoro-phenyl]-amide hydrochloride] | 11 | 130

The remaining compounds from weak to strong by IC50 [1], led by results:

IC50 [1] [nM] | IC50 [2] [nM] | Compound
160 | 67 | Cc1nc(C(=O)Nc2ccc(F)c([C@]3(C)CO[C@@](C)(C(F)(F)F)C(N)=N3)c2)c(C)o1 [Example 23, 2,5-Dimethyl-oxazole-4-carboxylic acid [3-((3R,6R)-5-amino-3,6-dimethyl-6-trifluoromethyl-3,6-dihydro-2H-[1,4]oxazin-3-yl)-4-fluoro-phenyl]-amide hydrochloride]
88 | – | Cc1cc(F)cnc1C(=O)Nc1ccc(F)c([C@]2(C)CO[C@@](C)(C(F)(F)F)C(N)=N2)c1 [Example 35, 5-Fluoro-3-methyl-pyridine-2-carboxylic acid [3-((3R,6R)-5-amino-3,6-dimethyl-6-trifluoro-methyl-3,6-dihydro-2H-[1,4]oxazin-3-yl)-4-fluoro-phenyl]-amide]
62 | 150 | COc1cc(C(F)F)c(C(=O)Nc2ccc(F)c([C@]3(C)CO[C@@](C)(C(F)(F)F)C(N)=N3)c2)nn1 [Example 30, 4-Difluoromethyl-6-methoxy-pyridazine-3-carboxylic acid [3-((3R,6R)-5-amino-3,6-dimethyl-6-trifluoromethyl-3,6-dihydro-2H-[1,4]oxazin-3-yl)-4-fluoro-phenyl]-amide hydrochloride]
36 | 110 | [2H]C([2H])([2H])OCc1cc(F)cnc1C(=O)Nc1ccc(F)c([C@]2(C(F)F)COCC(N)=N2)c1 [Example 9, 5-Fluoro-3-trideuteromethoxymethyl-pyridine-2-carboxylic acid [3-((R)-5-amino-3-difluoromethyl-3,6-dihydro-2H-[1,4]oxazin-3-yl)-4-fluoro-phenyl]-amide]
22 | 110 | [2H]C([2H])([2H])Oc1cnc(C(=O)Nc2ccc(F)c([C@]3(C(F)F)COCC(N)=N3)c2)c(C)c1 [Example 13, 5-Trideuteromethoxy-3-methyl-pyridine-2-carboxylic acid [3-((R)-5-amino-3-difluoromethyl-3,6-dihydro-2H-[1,4]oxazin-3-yl)-4-fluoro-phenyl]-amide]
22 | 300 | Cc1cc(OC(F)F)cnc1C(=O)Nc1ccc(F)c(C2(C)COC(CF)(CF)C(N)=N2)c1 (stereo not shown) [Example 39, 5-Difluoromethoxy-3-methyl-pyridine-2-carboxylic acid [3-(5-amino-6,6-bis-fluoromethyl-3-methyl-3,6-dihydro-2H-[1,4]oxazin-3-yl)-4-fluoro-phenyl]-amide]
14 | 14 | [2H]c1nc(C(=O)Nc2cc(F)c(F)c([C@]3(C(F)F)COCC(N)=N3)c2)c(C([2H])([2H])[2H])c([2H])c1Cl [Example 16, 4,6-Dideutero-5-chloro-3-trideuteromethyl-pyridine-2-carboxylic acid [3-((R)-5-amino-3-difluoromethyl-3,6-dihydro-2H-[1,4]oxazin-3-yl)-4,5-difluoro-phenyl]-amide]
13 | 12 | Cc1cc(C#N)cnc1C(=O)Nc1ccc(F)c([C@]2(CF)COC(CF)(CF)C(N)=N2)c1 [Example 42, 5-Cyano-3-methyl-pyridine-2-carboxylic acid [3-((R)-5-amino-3,6,6-tris-fluoromethyl-3,6-dihydro-2H-[1,4]oxazin-3-yl)-4-fluoro-phenyl]-amide]
10 | 38 | NC1=N[C@@](c2cc(NC(=O)c3ncc(C(F)F)cc3N)ccc2F)(C(F)F)COC1 [Example 12, 3-Amino-5-difluoromethyl-pyridine-2-carboxylic acid [3-((R)-5-amino-3-difluoromethyl-3,6-dihydro-2H-[1,4]oxazin-3-yl)-4-fluorophenyl]-amide]
9 | 20 | COc1cnc(C(=O)Nc2ccc(F)c([C@]3(C)CO[C@@](C)(C(F)(F)F)C(N)=N3)c2)c(Cl)c1 [Example 18, 3-Chloro-5-methoxy-pyridine-2-carboxylic acid [3-((3R,6R)-5-amino-3,6-dimethyl-6-trifluoromethyl-3,6-dihydro-2H-[1,4]oxazin-3-yl)-4-fluoro-phenyl]-amide hydrochloride]
9 | 20 | Cc1cc(C#N)cnc1C(=O)Nc1cc(F)c(F)c([C@]2(C(F)F)COCC(N)=N2)c1 [Example 14, 5-Cyano-3-methyl-pyridine-2-carboxylic acid [3-((R)-5-amino-3-difluoromethyl-3,6-dihydro-2H-[1,4]oxazin-3-yl)-4,5-difluoro-phenyl]-amide]
8 | 10 | C[C@@]1(c2cc(NC(=O)c3ncc(C(F)F)nc3N)ccc2F)CO[C@@](C)(C(F)(F)F)C(N)=N1 [Example 28, 3-Amino-5-difLuoromethyl-pyrazine-2-carboxylic acid [3-((3R,6R)-5-amino-3,6-dimethyl-6-trifluoromethyl-3,6-dihydro-2H-[1,4]oxazin-3-yl)-4-fluoro-phenyl]-amide]
4 | – | Cc1cc(C#N)cnc1C(=O)Nc1ccc(F)c(C2(C)COC(CF)(CF)C(N)=N2)c1 (racemic) [Example 37, 5-Cyano-3-methyl-pyridine-2-carboxylic acid [3-(5-amino-6,6-bis-fluoromethyl-3-methyl-3,6-dihydro-2H-[1,4]oxazin-3-yl)-4-fluoro-phenyl]-amide]
1 | 2 | C#CCOc1cnc(C(=O)Nc2ccc(F)c([C@]3(C(F)F)COCC(N)=N3)c2)c(N)n1 [Example 4, 3-Amino-5-prop-2-ynyloxy-pyrazine-2-carboxylic acid [3-((R)-5-amino-3-difluoromethyl-3,6-dihydro-2H-[1,4]oxazin-3-yl)-4-fluoro-phenyl]-amide]
